Experimental data reported in patent publication US20010048926A1, “SYNTHETIC PEPTIDE VACCINES FOR DENTAL CARIES” (priority 1992, published 2001).

Key:
[1] = tested on: inducing peptide construct; test: ELISA of serum IgG antibody to the inducing (homologous) peptide construct in immunized rats; assay type: in vivo, Sprague Dawley rats; conditions: for immunogenicity (percentage of animals responding and titer of responding sera): FIG. 1
Experimental: (§1) Immunogenicity of Peptides: Sprague Dawley CD strain 43 day-old male rats (Charles River Laboratories) were used for injection. Six groups of 4-5 rats were injected subcutaneously in the vicinity of the salivary glands with 50 μg each of GGY, AND, SAND or CAT peptide constructs, 10 μg of GTF, or sham-immunized with buffer alone. The initial injection included complete Freund adjuvant (CFA; Difco); two subsequent injections at 21-day intervals included incomplete Freund adjuvant. Animals were bled prior to injection and 14-21 days after each injection. Serum from coagulated and centrifuged blood was stored frozen at −20° C. until use.
(§2) ELISA: Serum IgG and salivary IgA antibodies were tested by enzyme-linked immunosorbent assay (ELISA). Polystyrene microtiter plates (Flow Laboratories) were coated with […] of each peptide construct or 0.5 μg of S. sobrinus GTF. Antibody activity was then measured by incubation with 1:100 to 1:10^6 dilutions of sera, or 1:4 to 1:32 dilutions of saliva. Plates were then developed for IgG antibody rabbit anti-rat IgG followed in sequence by alkaline phosphatase goat anti-rabbit IgG (Biosource Inc.) and p-nitrophenylphosphate (Sigma). A mouse monoclonal reagent to rat α chain (Zymed, South San Francisco, Calif.) was used with biotinylated goat anti-mouse IgG (TAGO, Inc., Burlingame, Calif.) and avidin-alkaline phosphatase (Cappel) to reveal levels of salivary IgA antibody to peptides. Reactivity was recorded as absorbance (A405 nm) in a micro plate reader (Biotek Instruments). Data are reported as absorbance (A405 nm), reciprocal titer, or as ELISA units (EU) which were calculated relative to the levels of appropriate reference sera or salivas from Sprague Dawley rats thrice immunized with the respective peptide construct. Dilutions of 1:12,800 and 1:6,400 (A405 nm approximately 1.0) were considered 100 EU for serum IgG to the GGY and AND constructs, respectively. Dilutions of 1:32 were considered 100 EU for salivary IgA to both GGY and AND constructs.
(§3) Two experiments were performed. Groups (n=11-12) of 23-26 day-old rats were subcutaneously (sc) injected in the salivary gland vicinity with (experiment 1) GGY (50 μg), AND (50 μg) or GTF(10 μg), or phosphate buffered saline (control animals), or (experiment 2) GGY (50 ;μg) or PBS. Each antigen was incorporated with complete Freund adjuvant in both experiments. Eight (experiment 1) or 14 (experiment 2) days later, rats were reinjected with PBS or with the same antigen and dose in incomplete Freund adjuvant. Six (experiment 1) or 12 (experiment 2) days after the second injection, animals were bled from the tail vein, and saliva was collected after injection of pilocarpine (1.0 mg/100 g body weight). Fourteen (experiment 1) or 11 (experiment 2) days after the second injection, all rats were orally infected with approximately 10^8 S. mutans for 3 consecutive days. Both experiments were terminated 63 days after initial infection.
(§4) Two experiments were performed to measure the effect of immunization with the eight-branched GGY and AND peptide constructs on experimental dental caries in the Sprague-Dawley rat. In the first experiment, groups of rats were immunized with GGY or AND peptide constructs. In the second experiment groups of rats were immunized only with the GGY peptide construct. Pre-infection sera and salivas were collected for antibody measurement in 39 day old rats in experiment 1 (6 days after the second injection) and 51 day old rats in experiment 2 (12 days after the second injection). In the GGY-immunized rat groups, IgG antibody levels to GGY (experiment 1=21.9+17.8 EU; experiment 2=108.0±4.0 EU) were elevated above those of the sham-immunized groups (experiment 1=1.7±0.2 EU; experiment 2=4.0±3.0 EU) in both experiments and reached statistical significance (p<0.002) in experiment 2.

[2] = tested on: inducing peptide construct; test: ELISA of salivary IgA antibody to the inducing (homologous) peptide construct in immunized rats; assay type: in vivo, Sprague Dawley rats; conditions: for rats with significant levels of salivary IgA antibody: GGY- and AND-injected rats counted together
Experimental: as §1, §2, §3, §4

S. sobrinus GTF [3] = test: ELISA of serum IgG antibody reacting with intact S. sobrinus GTF; assay type: in vivo; conditions: 63 day sera, FIG. 3; for IgG antibody reactivity with intact S. sobrinus GTF: n=4-5 per group
Text: (§5) Glucosyltransferases: Glucosyltransferases (GTF) from S. sobrinus strain 6715 were purified from culture supernatants after bacterial growth in glucose-containing defined media, as described in Taubman et al. (J. Oral Pathol. 17:466-470 (1988)). Enzymes were separated from other culture supernatant proteins by affinity chromatography on Sephadex G-100 (Pharmacia Fine Chemicals), using 6M guanidine HCl as the eluting solvent. GTFs were then obtained from the guanidine HCl eluate by FPLC chromatography on Superose 6 (Pharmacia) using 6M guanidine for elution. GTF preparations contained a mixture of GTF-I, GTF-Sd, and GTF-Si.
as §1, §2

CAT peptide construct = biological target: T1, CAT peptide construct (Streptococcus mutans serotype c, UniProt P08987); test: Cross-reactivity ELISA, plates coated with CAT peptide construct; assay type: binding; conditions: day 63 sera; FIG. 4
T1 construct: residues 442-462 of S. mutans GTF-B; purchased Applied Diagnostics, Foster City, Calif; host or cells: chemical solid phase synthesis
Experimental: as §1
(§6) ELISA: Serum IgG and salivary IgA antibodies were tested by enzyme-linked immunosorbent assay (ELISA). Polystyrene microtiter plates (Flow Laboratories) were coated with […] of each peptide construct or 0.5 μg of S. sobrinus GTF. Antibody activity was then measured by incubation with 1:100 to 1:10^6 dilutions of sera, or 1:4 to 1:32 dilutions of saliva. […] Reactivity was recorded as absorbance (A405 nm) in a micro plate reader (Biotek Instruments). Data are reported as absorbance (A405 nm), reciprocal titer, or as ELISA units (EU) which were calculated relative to the levels of appropriate reference sera or salivas from Sprague Dawley rats thrice immunized with the respective peptide construct. […]

GGY peptide construct = biological target: T2, GGY peptide construct (Streptococcus mutans serotype c, UniProt P08987); test: Cross-reactivity ELISA, plates coated with GGY peptide construct; assay type: binding; conditions: day 63 sera; FIG. 4
T2 construct: GGY and AND were 19-mer peptides; purchased Applied Diagnostics, Foster City, Calif; host or cells: chemical solid phase synthesis
Experimental: as §1, §6

S. sobrinus GTF [4] = test: Antibody inhibition of glucan synthesis (filter assay, 14C glucose incorporation into water-insoluble glucan); assay type: biochemical, S. sobrinus strain 6715
Text: as §5
Antibody Inhibition of Glucan Synthesis: Selected rat sera were evaluated for their ability to inhibit glucan synthesis catalyzed by S. sobrinus GTF, using a filter assay. Ten μl volumes of sera (1:100 dilutions in 0.02M sodium phosphate buffered saline and 0.02% sodium azide [PBSA], pH 6.5) were preincubated with the respective GTF for 1 hour at 37° C. in a total volume of 0.04 ml PBSA. Then 1.7 mg sucrose, 44 nCi of [^14C-glucose]-sucrose (approximately 100,000 cpm) were added in 0.2 ml PESA in the presence of 37 μg of dextran T10 (Pharmacia). Incubation proceeded for 18 hours at 37° C., after which water-insoluble glucan was collected on Whatman GF/F glass fiber filters, washed with PBSA, and radioactivity determined as described in Smith et al. (Infect. Immunity 62:5470-5476 (1994)).

S. mutans SJ32 = test: Protection experiments: caries assessment (modified Keyes method) after S. mutans infection; assay type: in vivo, Sprague-Dawley rats; conditions: both experiments
Text: Experimental Protocol for Protection Experiments: Animals used in the present experiments were derived from germ-free Sprague-Dawley rats that had been reared in the isolator facility of Charles River Laboratories, Wilmington, Mass. (Area 051). […] These rats served as initial breeding stock for dams used in these experiments and were regularly monitored for absence of mutans streptococci. The progeny of the dams used for the present experiments were weaned at approximately 21 days and were subsequently fed high sucrose Diet 2000.
as §3
Caries assessment: The extent and depth of carious lesions in all rat molar teeth (caries score) were microscopically evaluated by a modified Keyes method as previously described (Taubman et al., J. Immunol. 118:710-720 (1977)). Caries scores were determined separately on smooth and on sulcal dental surfaces.

AND peptide construct = biological target: T3, AND peptide construct (Streptococcus mutans serotype c, UniProt P08987); test: Cross-reactivity ELISA, plates coated with AND peptide construct; assay type: binding; conditions: day 63 sera; FIG. 4
T3 construct: GGY and AND were 19-mer peptides; purchased Applied Diagnostics, Foster City, Calif; host or cells: chemical solid phase synthesis
T3 sequence (P08987 whole entry, looked up): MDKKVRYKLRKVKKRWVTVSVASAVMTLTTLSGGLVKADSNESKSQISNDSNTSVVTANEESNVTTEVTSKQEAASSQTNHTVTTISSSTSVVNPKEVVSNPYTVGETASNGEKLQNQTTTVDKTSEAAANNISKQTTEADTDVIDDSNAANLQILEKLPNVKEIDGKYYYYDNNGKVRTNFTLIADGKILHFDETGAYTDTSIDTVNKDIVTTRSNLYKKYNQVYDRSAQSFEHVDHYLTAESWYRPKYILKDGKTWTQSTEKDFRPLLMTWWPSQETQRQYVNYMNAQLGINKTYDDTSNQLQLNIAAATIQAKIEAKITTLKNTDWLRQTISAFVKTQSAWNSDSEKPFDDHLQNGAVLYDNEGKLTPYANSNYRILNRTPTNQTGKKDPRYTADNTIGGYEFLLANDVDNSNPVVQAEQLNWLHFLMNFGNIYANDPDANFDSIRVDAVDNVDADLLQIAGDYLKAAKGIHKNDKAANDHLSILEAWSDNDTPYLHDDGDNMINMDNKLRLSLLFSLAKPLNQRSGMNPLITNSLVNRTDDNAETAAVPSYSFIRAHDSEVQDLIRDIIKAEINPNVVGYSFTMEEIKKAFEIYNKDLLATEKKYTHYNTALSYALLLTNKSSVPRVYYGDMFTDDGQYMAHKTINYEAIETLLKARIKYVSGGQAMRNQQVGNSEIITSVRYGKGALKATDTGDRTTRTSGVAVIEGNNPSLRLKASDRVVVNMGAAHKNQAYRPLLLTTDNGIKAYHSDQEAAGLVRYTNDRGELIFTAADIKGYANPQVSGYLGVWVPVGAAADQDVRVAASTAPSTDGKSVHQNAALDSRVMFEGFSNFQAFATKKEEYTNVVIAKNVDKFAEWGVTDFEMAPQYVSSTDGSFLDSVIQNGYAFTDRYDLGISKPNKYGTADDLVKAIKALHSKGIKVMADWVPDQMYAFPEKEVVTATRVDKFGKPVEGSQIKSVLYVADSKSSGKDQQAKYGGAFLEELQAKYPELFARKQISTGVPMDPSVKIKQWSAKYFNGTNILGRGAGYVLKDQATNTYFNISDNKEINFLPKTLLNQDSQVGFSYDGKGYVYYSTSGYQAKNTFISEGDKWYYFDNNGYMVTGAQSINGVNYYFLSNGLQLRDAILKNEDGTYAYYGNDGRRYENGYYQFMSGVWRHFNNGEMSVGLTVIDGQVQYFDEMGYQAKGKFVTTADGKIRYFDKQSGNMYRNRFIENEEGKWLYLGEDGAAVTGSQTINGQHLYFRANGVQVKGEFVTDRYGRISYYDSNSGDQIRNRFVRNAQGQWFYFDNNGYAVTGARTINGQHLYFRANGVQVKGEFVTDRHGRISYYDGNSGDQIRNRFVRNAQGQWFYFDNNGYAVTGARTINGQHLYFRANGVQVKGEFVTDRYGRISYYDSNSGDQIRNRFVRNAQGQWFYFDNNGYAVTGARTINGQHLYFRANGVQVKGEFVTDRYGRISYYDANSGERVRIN
Experimental: as §1, §6

[5] = tested on: experimental dental caries; conditions: Taubman et al. Infect. Immun. 63:3088-3093 (1995); protocol similar to experiment 1; cited from earlier work
anti-GGY serum = test: Epitope mapping by ELISA inhibition, anti-GGY serum on GGY-coated plates; assay type: binding, rat; conditions: anti-GGY serum preincubated with heptamer or intact peptide; FIG. 8
Experimental: Epitope Mapping: B cell epitopes were mapped on the GGY and AND peptides by an ELISA inhibition technique. Anti-GGY or anti-AND sera were preincubated with 13 separate heptamers representing the incremental peptide sequence of the respective peptide, or with intact peptide, followed by the conventional ELISA with intact peptide-coated plates. B cell epitopes were indicated by a significant reduction in absorbance.

[6] = protection experiment 1, pre-infection

ANDVDNSNPVVQ [SAND]
immunogenicity (percentage of animals responding and titer of responding sera) ([1]; immunogenicity experiment): weakly immunogenic

ANDVDNSNPVVQAEQLNWL
immunogenicity (percentage of animals responding and titer of responding sera) ([1]; immunogenicity experiment): at least as high as observed for the positive control CAT peptide
effect of subsequent immunization on serum IgG titers ([1]; immunogenicity experiment, day 21 (one injection) vs day 63 (three injections)): increased serum IgG titers in all AND-injected rats
serum IgG antibody to the inciting antigen after the first injection ([1]; immunogenicity experiment, rats 43 days old at start, 50 μg sc in CFA, day 21): induced serum IgG antibody to the inciting antigen after the first injection in all rats
Serum IgG antibody levels to the AND construct [1, 6]: not significantly elevated
levels of serum IgG antibody (in words) ([1]; protection experiment 1, weanling rats, two injections eight days apart, bled 14 days after onset (day 39 of life)): little detectable antibody
rats with significant levels of salivary IgA antibody ([2]; day 21 (one injection)): 7/9
rats with significant levels of salivary IgA antibody ([2]; day 63 (three injections)): 8/9
salivary IgA antibody levels to the AND construct [2, 6]: not significantly elevated
IgG antibody reactivity with intact S. sobrinus GTF (S. sobrinus GTF [3]): significant reactivity with GTF
GTF reactivity compared with antibody induced by the other peptides (S. sobrinus GTF [3]): significantly more reactive with GTF
reaction of serum IgG antibody with the CAT peptide (CAT peptide construct): low but significant reaction
reaction of antisera with the GGY peptide construct (GGY peptide construct): reaction with antisera induced by AND was observed
inhibition of formation of water-insoluble glucan from sucrose by S. sobrinus GTF (in words) (S. sobrinus GTF [4]; 63 day sera from injected rats, AND p<0.01, FIG. 5): inhibited GTF activity
level of inhibitory activity compared with other immunogens (S. sobrinus GTF [4]; 63 day sera, AND vs CAT p<0.02): exceeded that observed with sera from rats similarly immunized with CAT
mean and median total, smooth surface, and occlusal caries scores vs sham-injected group (S. mutans SJ32): lower than the respective scores of the sham-injected group

CAT: 21-mer peptide containing Asp 451, residues 442-462 of S. mutans GTF-B; positive control (DANFDSIRVDAVDNVDADLLQ) [reference compound]
IgG antibody reactivity with intact S. sobrinus GTF (S. sobrinus GTF [3]): significant reactivity with GTF
reaction of serum IgG antibody with the AND peptide construct (AND peptide construct): significant reaction
protective effect against experimental dental caries [5]: a significant protective effect was shown

LLANDVD
inhibition of GGY antibody binding to intact peptide-coated plates (anti-GGY serum): significantly inhibited

FLLANDV
inhibition of GGY antibody binding to intact peptide-coated plates (anti-GGY serum): significantly inhibited
